Data set [1] is described as follows: Hydrolysis of the lactone form of statins in phosphate buffer saline of modified pH. It counts as physicochemical. To be noted: phosphate buffer saline (PBS), 37°C. How it is done: (§1) The pH of DMEM culture medium was adjusted to the target values (6.8–7.8) by adding an appropriate volume of either 1.0 N HCl or NaOH to a medium containing 20 mmol/L 4-2-hydroxyethyl-1-piperazineethanesulfonic acid (HEPES) buffer. The pH was measured at incubation temperature (37°C) by Mettler Toledo T50 pH titrator. […] After equilibration, minor adjustment in pH was occasionally required to reach the desired final pH.[35] Maintaining medium under constant CO2 environment of 5% stabilizes the pH through CO2-HCO3^− equilibrium.[36] The pH of phosphate buffer saline (PBS) was adjusted to the target values (6.8–7.8) in the same way without the need for equilibration.
(§2) The interconversion of the lactone and hydroxy acid forms of simvastatin and pravastatin was investigated by incubating tested compounds with human plasma, PBS, and DMEM culture medium of defined pH values at 37°C for a predetermined period of time. […] Human plasma and PBS samples were incubated in C25 classic incubator shaker (New Brunswick Scientific). For DMEM samples, CO2 supply was maintained at 5% throughout experiment in a tissue culture incubator. The pH of different matrices was adjusted to simulate physiological pH, acidosis, and alkalosis as described previously. After incubation, the interconversion reaction was stopped at predetermined time points by adding 50 μL of ice-cold ammonium acetate buffer (100 mmol/L, pH 4.5) to 100 μL of tested samples.[14] Six replicates were tested at each pH level, and the concentrations of parent and corresponding forms were measured by fully validated HPLC analytical methods.
(§3) Fully validated HPLC-UV methods were used to determine the concentrations of the lactone and the corresponding hydroxy acid forms of simvastatin and pravastatin after interconversion studies in human plasma, PBS, and DMEM culture medium of different pH. Samples for HPLC analysis were prepared by protein precipitation followed by liquid-liquid extraction. A 100 μL of human plasma or DMEM samples were pipetted into 1.5 mL Eppendorf tubes, and 50 μL of ammonium acetate buffer (100 mmol/L, pH 4.5) along with 10 μL of internal standard solution (4,4-dichlorodiphenyltrichloroethane [DDT] or griseofulvin 100 μg/mL for simvastatin and pravastatin containing samples, respectively) was added, and samples were vortex mixed for 30 seconds. Proteins were precipitated by the addition of 300 μL of chilled ACN, and samples were vortex mixed for 1 minute and then centrifuged at 900g for 10 minutes at 4°C. After centrifugation, the ACN layer was transferred into new glass test tubes, and 3 mL of methyl tert-butyl ether were added to each sample, vortex mixed for 10 minutes, and centrifuged at 1,615g for 10 minutes at 4°C. Finally, the upper organic layers were separated using glass Pasteur pipette, transferred into new glass tubes, and the contents of the tubes were evaporated to dryness using Techne Sample Concentrator (Bibby Scientific Ltd, UK). The dry residues were reconstituted with 100 μL of the mobile phase, vortex mixed, and placed into appropriate HPLC vials. Samples from PBS were extracted in the same way with one exception that the protein precipitation step was skipped.
(§4) HPLC analysis was performed using Waters Alliance 2965 separation module equipped with Waters 996 Photodiode Array Detector and integrated autosampler. System control and data processing were performed using Empower software. Chromatographic separation was achieved by ACE Excel Super C18 column (100 × 3 mm, 3 μm) under isocratic conditions with mobile phase consisting of ACN: 5 mmol/L ammonium acetate buffer, pH 4.5 (73:27 and 55:45, v/v for simvastatin and pravastatin samples, respectively). The flow rate was set at 0.4 mL/min for simvastatin and 0.3 mL/min for pravastatin samples. Samples temperature was kept at 4°C, and column temperature was set at 40°C. Chromatographic separation was monitored by photodiode array detector at 238 nm with an injection volume of 20 μL.

Data set [2] can be described thus: Interconversion / hydrolysis of the lactone form of statins in human plasma of modified pH. It counts as in vitro ADME. To be noted: for proportion of lactone converted to the hydroxy acid form: 50 μmol/L, 24 hours at 37°C; for half-life at 50 μmol/L: 37°C. How it is done:
as §2, §3
as §4, with “40°C.” for “40°C. Chromatographic separation was monitored by photodiode array detector at 238 nm with an injection volume of 20 μL.”

A short description of data set [3]: Hydrolysis of the lactone form of statins in DMEM culture medium of modified pH. Type of data set: physicochemical. To be noted: 37°C. How it is done:
as §1, §2
Fully validated HPLC-UV methods were used to determine the concentrations of the lactone and the corresponding hydroxy acid forms of simvastatin and pravastatin after interconversion studies in human plasma, PBS, and DMEM culture medium of different pH. Samples for HPLC analysis were prepared by protein precipitation followed by liquid-liquid extraction. A 100 μL of human plasma or DMEM samples were pipetted into 1.5 mL Eppendorf tubes, and 50 μL of ammonium acetate buffer (100 mmol/L, pH 4.5) along with 10 μL of internal standard solution (4,4-dichlorodiphenyltrichloroethane [DDT] or griseofulvin 100 μg/mL for simvastatin and pravastatin containing samples, respectively) was added, and samples were vortex mixed for 30 seconds. Proteins were precipitated by the addition of 300 μL of chilled ACN, and samples were vortex mixed for 1 minute and then centrifuged at 900g for 10 minutes at 4°C. […]
HPLC analysis was performed using Waters Alliance 2965 separation module equipped with Waters 996 Photodiode Array Detector and integrated autosampler. […] Chromatographic separation was monitored by photodiode array detector at 238 nm with an injection volume of 20 μL.

Data set [4] relates to undifferentiated C2C12 cells. Nature of the data set: Cellular uptake of statins by undifferentiated C2C12 cells in medium of altered pH. It counts as cell-based, mouse. Conditions: 1 μmol/L, LC MS/MS. How it is done: (§5) Samples temperature was kept at 4°C, and column temperature was set at 40°C.
The test system of data set [5] is differentiated C2C12 cells. Description: Cellular uptake of statins by differentiated C2C12 cells in medium of altered pH. Type of data set: cell-based, mouse. Conditions: for intracellular levels of pravastatin: 1 μmol/L, LC MS/MS. As for the experimental part:
as §5

For data set [6], the system named is undifferentiated C2C12 cells. Description: MTT cytotoxicity in undifferentiated C2C12 cells in medium of different pH. It counts as cell-based. Conditions: Mus musculus, 72 hours, read-out: IC50 values of statins. How it is done:
(§6) The effect of medium pH alteration on the cytotoxicity of statins was evaluated by MTT and LDH cytotoxicity assays. Both undifferentiated and differentiated C2C12 cells were used in these studies. […] Before starting treatment, the medium was replaced by a fresh one with modified pH (6.8, 7.4, and 7.8). […] Positive control samples with 100% cell death were obtained by treating cells with 1% Triton X-100. Produced formazan crystals were dissolved in DMSO, and the absorbance was measured at 570 nm using EnVision Multilabel Plate Reader (PerkinElmer). Results were expressed as percentage of the control, and IC50 was calculated using prism 6 (GraphPad Software Inc).

The test system of data set [7] is differentiated C2C12 cells. Nature of the data set: MTT cytotoxicity in differentiated C2C12 cells in medium of different pH. It counts as cell-based. To be noted: Mus musculus, acidic medium (pH 6.8), 72 hours, read-out: IC50 values of statins. As for the experimental part: as §6

SMILES strings stand for the structures. Structures can show the parent of a compound that is named as a salt. Where two headings read alike, the source gives them in different places.

By half-life is commonly meant the time needed for the level to fall by half in the phase considered. As a reminder, the IC50 is the point on the concentration scale where inhibition reaches its midpoint.

On to `CC[C@H](C)C(=O)O[C@H]1C[C@H](O)C=C2C=C[C@H](C)[C@H](CC[C@@H]3C[C@@H](O)CC(=O)O3)[C@H]21` [PVL, pravastatin lactone], for which the half-life at 50 μmol/L in data set [1] (pH 6.8, 50 μmol/L) was 21.2 ± 1.75 h; in data set [1] (pH 7.0, 50 μmol/L), 13 ± 1.38 h; in data set [1] (pH 7.2, 50 μmol/L) it was 9.36 ± 1.57 h; in data set [1] (pH 7.4, 50 μmol/L), 6.89 ± 0.41 h; in data set [1] (pH 7.6, 50 μmol/L), 5.59 ± 0.49 h; in data set [1] (pH 7.8, 50 μmol/L), 4.98 ± 0.44 h. The half-life at 50 μmol/L is 8.84 ± 0.31 h in data set [2] (pH 6.8, 50 μmol/L); 7.39 ± 0.22 h in data set [2] (pH 7.0, 50 μmol/L); 6.61 ± 0.95 h in data set [2] (pH 7.2, 50 μmol/L); 6.85 ± 0.54 h in data set [2] (pH 7.4, 50 μmol/L); 17.3 ± 4 h in data set [3] (pH 6.8, 50 μmol/L); 11.9 ± 2.71 h in data set [3] (pH 7.2, 50 μmol/L). For the same molecule, the half-life at 50 μmol/L was 9.72 ± 1.42 h in data set [3] (pH 7.4, 50 μmol/L) and 10.7 ± 0.81 h in data set [3] (pH 7.8, 50 μmol/L). In addition, the results for the “proportion of lactone converted to the hydroxy acid form” value in data set [2] (alkaline pH) and in data set [2] (physiological pH) were approximately 99% and approximately 98%, respectively. Also, the “intracellular levels of pravastatin” value in data set [4] and in data set [5] was “below the limit of quantification” throughout.

On to `CCC(C)(C)C(=O)O[C@H]1C[C@@H](C)C=C2C=C[C@H](C)[C@H](CC[C@@H](O)C[C@@H](O)CC(=O)O)[C@H]21` [SVA, simvastatin hydroxy acid ammonium salt], for which, in data set [5] (1 μmol/L SVA), the “increase in uptake at acidic extracellular pH” value was “more than 2 folds”. In addition, the “reduction in uptake under alkaline pH” value in data set [5] (1 μmol/L SVA) was “approximately 50%”. For the same molecule, the half-inhibitory concentration (IC50) is 2.22 ± 0.04 µM in data set [6] (acidic medium (pH 6.8)), 16.9 ± 0.48 µM in data set [6] (alkaline medium (pH 7.8)), 4.35 ± 0.09 µM in data set [6] (neutral medium (pH 7.4)) and 65.4 ± 2.69 µM in data set [7].

Take `CC[C@H](C)C(=O)O[C@H]1C[C@H](O)C=C2C=C[C@H](C)[C@H](CC[C@@H](O)C[C@@H](O)CC(=O)O)[C@H]21` [PVA, pravastatin hydroxy acid sodium]: the “intracellular levels of pravastatin” value in data set [4] and in data set [5] was “below the limit of quantification” each time.

The record behind these values is PMC4967449, “The role of acid-base imbalance in statin-induced myotoxicity” (Translational Research, 2016).
